The results in this text go back to US12371432B2, “Haloallylamine compounds and application thereof” (TransThera Sciences (Nanjing), Inc., priority 2019, dated 2025).

Structures are written as SMILES. Structures can show the parent of a compound that is named as a salt.

Holding throughout (format): biochemical
For experiment [1], the target named is T1, rhVAP-1 (Homo sapiens, UniProt Q16853).
T1 construct: purchased PeproTech
T1 sequence (Q16853 27-763 limits assumed): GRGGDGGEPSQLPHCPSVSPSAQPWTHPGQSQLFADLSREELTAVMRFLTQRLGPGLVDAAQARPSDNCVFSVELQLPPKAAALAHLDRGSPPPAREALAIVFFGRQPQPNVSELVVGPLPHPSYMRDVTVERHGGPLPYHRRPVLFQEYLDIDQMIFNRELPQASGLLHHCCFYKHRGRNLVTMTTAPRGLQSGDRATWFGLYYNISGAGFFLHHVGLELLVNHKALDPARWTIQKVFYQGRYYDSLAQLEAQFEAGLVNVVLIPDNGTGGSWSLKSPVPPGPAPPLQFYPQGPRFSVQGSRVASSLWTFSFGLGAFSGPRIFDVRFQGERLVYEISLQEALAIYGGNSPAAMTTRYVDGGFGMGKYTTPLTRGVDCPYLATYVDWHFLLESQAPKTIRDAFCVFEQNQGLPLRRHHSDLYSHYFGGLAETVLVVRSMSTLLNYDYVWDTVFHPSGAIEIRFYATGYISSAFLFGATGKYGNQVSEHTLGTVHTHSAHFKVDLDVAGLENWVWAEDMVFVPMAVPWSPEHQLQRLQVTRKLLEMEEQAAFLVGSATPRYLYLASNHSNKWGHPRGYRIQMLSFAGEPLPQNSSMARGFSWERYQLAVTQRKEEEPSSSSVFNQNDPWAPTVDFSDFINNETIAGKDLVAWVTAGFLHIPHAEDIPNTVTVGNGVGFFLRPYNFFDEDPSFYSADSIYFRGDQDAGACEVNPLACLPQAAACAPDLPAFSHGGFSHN
The experiment in a line: Inhibitory activity against rhVAP-1 enzyme (Biological Example 1). The settings on record: Table 1; benzylamine substrate, Amplex Red/HRP. How it is done: (§1) 1. Inhibitory Activity of Compounds Against rhVAP-1 Enzyme
(§2) (1) Instrument, Consumable and Reagent
Multifunctional microplate reader (MD, FlexStation3), black unclear-bottom 96-well plate (Corning), and rhVAP-1 (PeproTech)
(§3) (2) Preparation of Concentration Gradient Compound Solutions
An appropriate amount of the compound to be tested was taken, dissolved in DMSO to 10 mM and then stored. Before the study, an appropriate amount of mother liquor of the 10 mM compound to be tested was diluted with DMSO, so that 1 mM solution was obtained. The solution was then gradiently diluted 3-fold with DMSO, 10 concentration gradients in total. PBS was then used to carry out 100-fold dilution, so that compound solutions of 10× series of concentrations were prepared.
(§4) (3) Preparation of Enzyme Solutions
(§5) An appropriate amount of protein diluent was added into rhVAP-1 powder, obtaining 1 mg/mL of mother liquor for storage. Before the study, PBS was used to carry out dilution to obtain enzyme solutions of 4× concentrations.
(§6) (4) Preparation of Substrate Mixtures of 2× Concentrations
(§7) An appropriate amount of benzylamine was weighed and dissolved with PBS to obtain 200 mM of benzylamine solution. The benzylamine solution was added with 2 mM of Amplex Red mother liquor and 500 U/mL of HRP mother liquor and diluted with PBS to obtain substrate mixtures of 2× concentrations.
10 μL compound solutions of different concentrations, 25 μL rhVAP-1 enzyme solutions of 4× concentrations and 15 μL of PBS were first added into a 96-well plate, shaken to be mixed uniformly and then incubated at 37° C. for 30 min. 50 μL substrate mixtures of 2× concentrations were then added into each well, and the microplate reader was immediately used to detect fluorescence intensity of each well with 565 nm exciting light and 590 nm emission light for 5 min each time, 25 min in total. […]
(§8) V: fluorescence change rate; Ft: fluorescence reading at time point t; F0: initial fluorescence reading; Time: duration t; Vcmpd: fluorescence change rate of tested compound; Vmax: Max hole fluorescence change rate. […]

The target in experiment [2] is T2, rhAOC1 (Homo sapiens, UniProt P19801).
T2 construct: purchased R&D
T2 sequence (P19801 20-751): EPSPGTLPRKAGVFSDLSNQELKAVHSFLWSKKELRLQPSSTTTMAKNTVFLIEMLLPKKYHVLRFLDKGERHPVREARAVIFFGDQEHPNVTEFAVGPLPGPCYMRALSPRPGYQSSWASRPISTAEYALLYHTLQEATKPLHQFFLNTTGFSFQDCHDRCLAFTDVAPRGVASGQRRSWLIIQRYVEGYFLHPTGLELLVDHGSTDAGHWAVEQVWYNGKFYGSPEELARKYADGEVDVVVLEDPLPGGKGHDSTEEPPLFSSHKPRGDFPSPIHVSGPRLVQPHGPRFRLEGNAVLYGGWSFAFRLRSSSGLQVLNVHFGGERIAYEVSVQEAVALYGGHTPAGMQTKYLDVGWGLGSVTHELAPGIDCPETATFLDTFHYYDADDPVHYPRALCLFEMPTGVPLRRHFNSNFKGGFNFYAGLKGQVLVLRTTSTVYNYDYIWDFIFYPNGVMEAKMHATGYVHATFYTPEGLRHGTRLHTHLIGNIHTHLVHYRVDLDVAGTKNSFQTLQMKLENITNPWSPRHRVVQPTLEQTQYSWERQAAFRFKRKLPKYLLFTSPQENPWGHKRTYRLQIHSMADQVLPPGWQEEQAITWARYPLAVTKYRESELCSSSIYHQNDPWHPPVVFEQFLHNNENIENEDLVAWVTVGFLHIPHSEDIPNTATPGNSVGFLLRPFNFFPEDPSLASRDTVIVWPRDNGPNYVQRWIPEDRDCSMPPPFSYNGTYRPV
The experiment can be described thus: Selectivity against rhAOC1 enzyme (Biological Example 1). To be noted: Table 1; histamine substrate, Amplex Red/HRP. How it is done: 2. Selectivity of Compounds Against rhAOC1 Enzyme
as §2
Microplate reader (Perkin Elmer, Nivo 5S), black unclear-bottom 96-well plate (Corning) and rhAOC1 (R&D)
as §3
An appropriate amount of the compound to be tested was taken, dissolved in DMSO to 10 mM and then stored. Before the study, an appropriate amount of mother liquor of the 10 mM compound to be tested was taken and gradiently diluted 3-fold with DMSO, 10 concentration gradients in total. Each concentration gradient was then diluted 10-fold with 0.1 M of PBS.
as §4
An appropriate amount of rhAOC1 mother liquor with a concentration of 0.441 mg/mL was taken and diluted with an appropriate amount of 50 mM HEPES buffer solution to obtain enzyme solutions of 4× concentrations.
as §6
An appropriate amount of histamine was weighed and dissolved with 50 mM of HEPES buffer solution to obtain 20 mM of histamine solution. The histamine solution was added with 2 mM of Amplex Red mother liquor and 500 U/mL of HRP mother liquor and diluted with 50 mM of HEPES buffer solution to obtain substrate mixtures of 2× concentrations.
10 μL compound solutions of different concentrations, 25 μL rhAOC1 enzyme solutions of 4× concentrations and 15 μL of 50 mM HEPES buffer solution were first added into a 96-well plate, shaken to be mixed uniformly and then incubated at 37° C. for 30 min. 50 μL substrate mixtures of 2× concentrations were then added into each well, and the microplate reader was immediately used to detect fluorescence intensity of each well with 580 nm (20 nm) exciting light and 620 nm (10 nm) emission light for 5 min each time, 30 min in total. […]
as §8

In experiment [3] the target is T1, rhVAP-1. The experiment in a line: Inhibitory activity against rhVAP-1 enzyme (Biological Example 2). To be noted: Table 2; benzylamine substrate, Amplex Red/HRP. The procedure: as §1, §2
Microplate reader (Perkin Elmer, Nivo 5S), black unclear-bottom 96-well plate (Corning) and rhVAP-1 (PeproTech)
as §3
An appropriate amount of the compound to be tested was taken, dissolved in DMSO to 10 mM and then stored. Before the study, an appropriate amount of mother liquor of the 10 mM compound to be tested was taken and gradiently diluted 3-fold with DMSO, 10 concentration gradients in total. Each concentration gradient was then diluted 100-fold with 0.1 M of PBS.
as §4, §5, §6, §7
10 μL compound solutions of different concentrations, 25 μL rhVAP-1 enzyme solutions of 4× concentrations and 15 μL of PBS were first added into a 96-well plate, shaken to be mixed uniformly and then incubated at 37° C. for 30 min. 50 μL substrate mixtures of 2× concentrations were then added into each well, and the microplate reader was immediately used to perform detection with 580 nm (20 nm) exciting light and 620 nm (10 nm) emission light for 5 min each time, 30 min in total. The inhibition rate was calculated according to the following formula: V (RFU/min)=(Ft (RFU)−F0 (RFU))/(time(min)) Inhibition rate (%)=100%−Vcmpd (RFU/min)/Vmax (RFU/min)×100%
V: fluorescence change rate; Ft: fluorescence reading at time point t; F0: initial fluorescence reading; Time: duration t; Vcmpd: fluorescence change rate of tested compound; Vmax: Max hole fluorescence change rate.
(6) Fitting of Dose-Response Curve
(§9) With the log value of concentration as the X axis and the percent inhibition rate as the Y axis, the log (inhibitor) vs. response-variable slope of analysis software GraphPad Prism 5 was used to fit a dose-response curve, thus obtaining the IC50 value of activity of each compound against the enzyme.

Experiment [4] has as its target T3, MAO-A (Homo sapiens, UniProt P21397).
T3 construct: purchased Active Motif
T3 sequence (P21397 1-527): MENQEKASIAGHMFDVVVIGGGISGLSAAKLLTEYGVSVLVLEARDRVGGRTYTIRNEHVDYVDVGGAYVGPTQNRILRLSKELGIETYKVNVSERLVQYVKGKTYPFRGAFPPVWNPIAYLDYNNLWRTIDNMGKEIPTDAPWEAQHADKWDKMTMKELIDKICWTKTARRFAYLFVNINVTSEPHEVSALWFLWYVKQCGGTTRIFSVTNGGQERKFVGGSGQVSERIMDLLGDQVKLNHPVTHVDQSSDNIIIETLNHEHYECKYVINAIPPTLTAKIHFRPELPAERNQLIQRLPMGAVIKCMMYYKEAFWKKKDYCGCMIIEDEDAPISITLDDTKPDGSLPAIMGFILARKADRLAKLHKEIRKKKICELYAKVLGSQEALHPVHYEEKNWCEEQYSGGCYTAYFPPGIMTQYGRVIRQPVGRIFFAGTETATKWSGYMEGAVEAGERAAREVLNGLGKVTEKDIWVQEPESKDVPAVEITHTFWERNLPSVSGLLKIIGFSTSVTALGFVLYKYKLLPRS
The experiment can be described thus: Selectivity against MAO-A enzyme (MAO-Glo). The procedure: as §2
(§10) Microplate reader (Perkin Elmer, EnVision), 384-well plate (Perkin Elmer), centrifuge (Eppendorf), MAO-Glo™ (Promega), MAO-A (Active Motif) and MAO-B (Active Motif).
as §3
(§11) An appropriate amount of the compound to be tested was taken, dissolved in DMSO to 10 mM and then stored. The solution was then gradiently diluted 4-fold with DMSO, 6 concentration gradients in total.
as §4
(§12) MAO-A/B mother liquor was diluted with the experimental buffer for MAO-A/B to obtain enzyme solutions of 2× concentrations.
as §6
(§13) The mother liquor of MAO-A/B substrate mixture was diluted with the experimental buffer for MAO-A/B to obtain substrate mixtures of 2× concentrations.
(§14) 200 nL compound solutions or solvents of different concentrations and 10 μL MAO-A/B enzyme solutions of 2× concentrations were added into a 384-well plate, centrifuged at 1,000 rpm for 60 s, shaken to be mixed uniformly and then incubated at room temperature for 15 min. 10 μL substrate mixtures of 2× concentrations were then added into each well, and reaction was initiated. The 384-well plate was centrifuged at 1,000 rpm for 60 s, shaken for a uniform mixing and then incubated at room temperature for 60 min. 20 μL of test stop solution was added to stop reaction. Centrifugation was performed at 1,000 rpm for 60 s, and shaking was performed for uniform mixing. After 30 min of standing, the microplate reader was used to perform reading.
(§15) The inhibition rate was calculated according to the following formula: Inhibition rate (%)=(Signal_Max-Signal_sample)/(Signal_Max-Signal_min)×100 (6) Fitting of Dose-Response Curve
as §9

For experiment [5], the target named is T4, MAO-B (Homo sapiens, UniProt P27338).
T4 construct: purchased Active Motif
T4 sequence (P27338 1-520): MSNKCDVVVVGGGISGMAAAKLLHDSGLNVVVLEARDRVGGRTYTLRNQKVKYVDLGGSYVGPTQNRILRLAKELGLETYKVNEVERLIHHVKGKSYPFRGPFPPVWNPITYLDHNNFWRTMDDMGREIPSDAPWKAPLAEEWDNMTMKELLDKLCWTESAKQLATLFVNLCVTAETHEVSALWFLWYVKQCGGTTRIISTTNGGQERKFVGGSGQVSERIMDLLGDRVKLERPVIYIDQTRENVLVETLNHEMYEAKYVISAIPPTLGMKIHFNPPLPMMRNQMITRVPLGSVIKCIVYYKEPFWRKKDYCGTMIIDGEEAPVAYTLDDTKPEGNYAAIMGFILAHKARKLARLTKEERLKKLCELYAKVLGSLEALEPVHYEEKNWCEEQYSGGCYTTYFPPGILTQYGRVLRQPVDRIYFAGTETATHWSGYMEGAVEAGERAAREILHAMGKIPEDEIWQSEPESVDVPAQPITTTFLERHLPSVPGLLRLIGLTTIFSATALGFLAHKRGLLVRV
The experiment can be described thus: Selectivity against MAO-B enzyme (MAO-Glo). The procedure: as §2, §10, §3, §11, §4, §12, §6, §13, §14, §15, §9

In general, IC50 refers to the concentration needed to halve the response being measured. Consider `NC/C(=C\F)Cn1ccc2cc(C(=O)N3CCOCC3)ccc21` [Compound C1, (E)-(1-(2-(aminomethyl)-3-fluoroallyl)-1H-indol-5-yl)(morpholino)methanone], for which the figures for the IC50 in experiment [1] and in experiment [2] were 79 nM and 26.9 µM, respectively.
On to `CC(C)(C)CN1CCc2nn(C/C(=C/F)CN)cc2C1=O` [Compound A37 hydrochloride, (E)-2-(2-(aminomethyl)-3-fluoroallyl)-5-neopentyl-2,5,6,7-tetrahydro-4H-pyrazolo[4,3-c]pyridin-4-one], for which the IC50 was 8 nM in experiment [3], over 100 µM in experiment [4] and over 100 µM in experiment [5].
Regarding `NC/C(=C\F)Cn1ncc2c(=O)n(C3CC3)ccc21` [Compound A44 hydrochloride, (E)-1-(2-(aminomethyl)-3-fluoroallyl)-5-cyclopropyl-1,5-dihydro-4H-pyrazolo[4,3-c]pyridin-4-one], the IC50 is 13 nM in experiment [3], 77.4 µM in experiment [4] and 88.9 µM in experiment [5].
